Assay results as given in US20060046976A1, “Method for increasing the bone mineral density and bone micro-architecture or connectivity of a mammal using N-acylated glucosamines” (priority 2004, published 2006).

Tested on: SCW-arthritis rats
Experiment: Two-dimensional subchondral bone analysis (structure, connectivity/strut analysis, plate thickness) of proximal tibia, SCW-arthritis rats
Type: in vivo, Lewis type rats
Settings: for 2D-Tb.N Mean ± SEM / 2D-Tb.Th % loss / 2D-Tb.Th Mean ± SEM / End Points % loss / End Points Mean ± SEM / Multiple points % loss / Multiple points Mean ± SEM / Node-node struts % loss / Node-node struts Mean ± SEM / Total Strut length % loss / Total Strut length Mean ± SEM / 2D-BV/TV % loss / 2D-BV/TV Mean ± SEM / 2D-Tb.N % loss: SCW + 200 mg

CCCC(=O)N[C@H]1C(O)O[C@H](CO)[C@@H](O)[C@@H]1O (stereo partly drawn) [GlcNBu, N-butyryl-D-glucosamine]
2D-Tb.N Mean ± SEM (Anterior/lateral): 6.0 ± 0.7 /mm | 2D-Tb.Th % loss (Anterior/lateral): 30% | 2D-Tb.Th Mean ± SEM (Anterior/lateral): 39.7 ± 2.9 um | End Points % loss (Anterior/lateral): −120% | End Points Mean ± SEM (Anterior/lateral): 34.1 ± 4.1 1/mm2 | Multiple points % loss (Anterior/lateral): 37% | Multiple points Mean ± SEM (Anterior/lateral): 10.3 ± 2.7 1/mm2 | Node-node struts % loss (Anterior/lateral): 64% | Node-node struts Mean ± SEM (Anterior/lateral): 1.2 ± 0.4 mm/mm2 | Total Strut length % loss (Anterior/lateral): 28% | Total Strut length Mean ± SEM (Anterior/lateral): 5.4 ± 0.7 mm/mm2 | 2D-BV/TV % loss (Anterior/medial): 31% | 2D-BV/TV Mean ± SEM (Anterior/medial): 27.8 ± 2.7% | 2D-Tb.N % loss (Anterior/medial): 10% | 2D-Tb.N Mean ± SEM (Anterior/medial): 5.7 ± 0.6 /mm | 2D-Tb.Th % loss (Anterior/medial): 28% | 2D-Tb.Th Mean ± SEM (Anterior/medial): 49.5 ± 4.3 um | End Points % loss (Anterior/medial): −99% | End Points Mean ± SEM (Anterior/medial): 26.7 ± 5.7 1/mm2 | Multiple points % loss (Anterior/medial): 32% | Multiple points Mean ± SEM (Anterior/medial): 10.7 ± 1.7 1/mm2 | Node-node struts % loss (Anterior/medial): 45% | Node-node struts Mean ± SEM (Anterior/medial): 1.3 ± 0.3 mm/mm2 | Total Strut length % loss (Anterior/medial): 15% | Total Strut length Mean ± SEM (Anterior/medial): 5.1 ± 0.5 mm/mm2 | 2D-BV/TV % loss (Middle section/lateral): 15% | 2D-BV/TV Mean ± SEM (Middle section/lateral): 24.1 ± 2.1% | 2D-Tb.N % loss (Middle section/lateral): 0% | 2D-Tb.N Mean ± SEM (Middle section/lateral): 4.7 ± 0.3 /mm | 2D-Tb.Th % loss (Middle section/lateral): 16% | 2D-Tb.Th Mean ± SEM (Middle section/lateral): 51.3 ± 2.8 um | End Points % loss (Middle section/lateral): −92% | End Points Mean ± SEM (Middle section/lateral): 19.8 ± 1.7 1/mm2 | Multiple points % loss (Middle section/lateral): 2% | Multiple points Mean ± SEM (Middle section/lateral): 9.5 ± 1.9 1/mm2 | Node-node struts % loss (Middle section/lateral): 15% | Node-node struts Mean ± SEM (Middle section/lateral): 0.9 ± 0.2 mm/mm2 | Total Strut length % loss (Middle section/lateral): 9% | Total Strut length Mean ± SEM (Middle section/lateral): 4.2 ± 0.2 mm/mm2 | 2D-BV/TV % loss (Middle section/medial): 17% | 2D-BV/TV Mean ± SEM (Middle section/medial): 35.1 ± 4.1% | 2D-Tb.N % loss (Middle section/medial): −9% | 2D-Tb.N Mean ± SEM (Middle section/medial): 5.1 ± 0.2 /mm | 2D-Tb.Th % loss (Middle section/medial): 24% | 2D-Tb.Th Mean ± SEM (Middle section/medial): 68.5 ± 6.3 um | End Points % loss (Middle section/medial): −145% | End Points Mean ± SEM (Middle section/medial): 12.2 ± 2.1 1/mm2 | Multiple points % loss (Middle section/medial): −11% | Multiple points Mean ± SEM (Middle section/medial): 12.6 ± 1.8 1/mm2 | Node-node struts % loss (Middle section/medial): 4% | Node-node struts Mean ± SEM (Middle section/medial): 2.0 ± 0.3 mm/mm2 | Total Strut length % loss (Middle section/medial): −2% | Total Strut length Mean ± SEM (Middle section/medial): 4.9 ± 0.3 mm/mm2 | 2D-BV/TV % loss (Posterior/lateral): 27% | 2D-BV/TV Mean ± SEM (Posterior/lateral): 23.2 ± 1.0% | 2D-Tb.N % loss (Posterior/lateral): 13% | 2D-Tb.N Mean ± SEM (Posterior/lateral): 4.5 ± 0.2 /mm | 2D-Tb.Th % loss (Posterior/lateral): 22% | 2D-Tb.Th Mean ± SEM (Posterior/lateral): 49.8 ± 1.7 um | End Points % loss (Posterior/lateral): −114% | End Points Mean ± SEM (Posterior/lateral): 21.4 ± 1.7 1/mm2 | Multiple points % loss (Posterior/lateral): 59% | Multiple points Mean ± SEM (Posterior/lateral): 7.1 ± 0.7 1/mm2 | Node-node struts % loss (Posterior/lateral): 46% | Node-node struts Mean ± SEM (Posterior/lateral): 0.7 ± 0.1 mm/mm2 | Total Strut length % loss (Posterior/lateral): 16% | Total Strut length Mean ± SEM (Posterior/lateral): 4.0 ± 0.2 mm/mm2 | 2D-BV/TV % loss (Posterior/medial): 21% | 2D-BV/TV Mean ± SEM (Posterior/medial): 35.9 ± 2.2% | 2D-Tb.N % loss (Posterior/medial): 5% | 2D-Tb.N Mean ± SEM (Posterior/medial): 6.1 ± 0.2 /mm | 2D-Tb.Th % loss (Posterior/medial): 21% | 2D-Tb.Th Mean ± SEM (Posterior/medial): 61.0 ± 3.6 um | End Points % loss (Posterior/medial): −233% | End Points Mean ± SEM (Posterior/medial): 17.1 ± 1.8 1/mm2 | Multiple points % loss (Posterior/medial): 29% | Multiple points Mean ± SEM (Posterior/medial): 13.9 ± 1.8 1/mm2 | Node-node struts % loss (Posterior/medial): 23% | Node-node struts Mean ± SEM (Posterior/medial): 2.1 ± 0.3 mm/mm2 | Total Strut length % loss (Posterior/medial): 12% | Total Strut length Mean ± SEM (Posterior/medial): 5.6 ± 0.3 mm/mm2 | Subchondral Plate Thickness (SCW + GlcNBu High, lateral epiphysis of proximal tibia): 0.11 ± 0.04 mm | Subchondral Plate Thickness (SCW + GlcNBu High, medial epiphysis of proximal tibia): 0.07 ± 0.04 mm | Subchondral Plate Thickness (SCW + GlcNBu Low, lateral epiphysis of proximal tibia): 0.10 ± 0.04 mm | Subchondral Plate Thickness (SCW + GlcNBu Low, medial epiphysis of proximal tibia): 0.07 ± 0.03 mm | decrease of Subchondral Plate Thickness in arthritis (SCW-arthritis rats, GlcNBu treatment, especially high dose): minimized by GlcNBu treatment | bone connectivity (SCW-arthritis rats, low and high dose GlcNBu): dose-dependent increase in bone connectivity | length of node-to-node struts, untreated arthritis-induced group to high dose group (medial side of the proximal epiphysis, high dose, p=0.034): significant increase
